In ChEMBL document CHEMBL1201862, “PubChem BioAssay data set” (2004):
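Protocol summary: plate cells (96-well), add compound at 5 concentrations, incubate 48 h, interpolate endpoints linearly. Here, GI50 denotes the concentration required for 50% inhibition of growth.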 Active and inactive are the calls of the source. Rule as the data show it: active = GI50 up to about 1.1 µM and inactive = higher.

Experiments:
Experiment in all cases: growth of human tumour cells (NCI), 48 h
DLD-1 = system: DLD-1
DMS-114 = system: DMS-114
HOP-18 = system: HOP-18
KM-20L2 = system: KM-20L2
LXFL 529 = system: LXFL 529
RXF 631 = system: RXF 631
SNB-78 = system: SNB-78
T47D = system: T47D
XF498 = system: XF498

Measured: GI50

CCCCCCCCCCCCCCCC(=O)OCCOCCOCCOCCOCCOC(=O)CCCCCCCCCCCCCCC
inactive: DLD-1 > 100 µM | DMS-114 > 100 µM | HOP-18 > 100 µM | KM-20L2 > 100 µM | LXFL 529 > 100 µM | RXF 631 > 100 µM | SNB-78 > 100 µM

C[C@@H]1C(=O)CC2C(C)(C)CCC[C@]2(C)[C@@]12CC[C@]1(C=COC1)O2 (some centres undefined)
inactive: DMS-114 35.6 µM | HOP-18 > 100 µM | KM-20L2 46.7 µM | SNB-78 41.2 µM

COc1ccc(N2C(=O)C3c4[nH]c5ccccc5c4C4c5ccccc5CC4C3C2=O)cc1 (centres undefined)
inactive: T47D > 100 µM

CCOC(=O)N1C2C=C(C)C(ON2C(=O)c2ccccc2)C2C(C)C(=O)N21 (centres undefined)
inactive: DLD-1 > 100 µM | DMS-114 > 100 µM | HOP-18 > 100 µM | KM-20L2 > 100 µM | LXFL 529 > 100 µM | SNB-78 > 100 µM | XF498 > 100 µM

CNC(=S)N/N=C(\C)c1cc(OC)ccc1O
inactive: T47D > 100 µM

COc1ccc2c3c1OC1C4(CCC5C(C2)N(CC2CC2)CCC351)OCCO4 (centres undefined)
inactive: T47D > 100 µM

Cc1csc2c1C(=O)c1ccsc1C2=O
inactive: DLD-1 2.68 µM | DMS-114 1.69 µM | HOP-18 1.95 µM | KM-20L2 4.28 µM | LXFL 529 3.42 µM | SNB-78 4.27 µM | T47D 2.2 µM | XF498 2.35 µM

NC(=O)C[S+]([O-])CC(N)C(=O)O (centres undefined)
inactive: T47D > 100 µM

COC(=O)c1c[nH]cc1CCc1c[nH]cc1C(=O)OC
inactive: KM-20L2 > 100 µM | LXFL 529 > 100 µM | SNB-78 > 100 µM | XF498 > 100 µM

Cc1ccc2c(c1)C(=O)c1nc(C)ccc1C2=O
inactive: T47D 38.3 µM

CC(C(=O)N1c2ccccc2Sc2ccccc21)N1c2ccccc2Sc2ccccc21 (centres undefined)
inactive: T47D 46.1 µM

O=c1c(O)c(-c2ccccc2)n(O)c2ccc(Cl)cc12
inactive: DLD-1 26.8 µM | DMS-114 23 µM | HOP-18 47.8 µM | KM-20L2 28.1 µM | LXFL 529 23.8 µM | RXF 631 27.5 µM | SNB-78 37.3 µM

O=C(N/N=C(COc1ccccc1Cl)\N=C\c1ccncc1)c1ccncc1
inactive: T47D > 100 µM
